Laboratory results reported in article PMC12049818, “Identification of NUV-244 as a PNPLA3 I148M degrading small molecule” (iScience, 2025).

Key:
PNPLA3 = biological target: T1, PNPLA3 (Homo sapiens, UniProt Q9NST1); assay: Huh7 untagged PNPLA3 immunofluorescence on lipid droplets; assay type: cell-based; details: anti-PNPLA3 IF; representative curve, Figure 3E
T1 construct: host or cells: Huh7
T1 sequence (Q9NST1 1-481): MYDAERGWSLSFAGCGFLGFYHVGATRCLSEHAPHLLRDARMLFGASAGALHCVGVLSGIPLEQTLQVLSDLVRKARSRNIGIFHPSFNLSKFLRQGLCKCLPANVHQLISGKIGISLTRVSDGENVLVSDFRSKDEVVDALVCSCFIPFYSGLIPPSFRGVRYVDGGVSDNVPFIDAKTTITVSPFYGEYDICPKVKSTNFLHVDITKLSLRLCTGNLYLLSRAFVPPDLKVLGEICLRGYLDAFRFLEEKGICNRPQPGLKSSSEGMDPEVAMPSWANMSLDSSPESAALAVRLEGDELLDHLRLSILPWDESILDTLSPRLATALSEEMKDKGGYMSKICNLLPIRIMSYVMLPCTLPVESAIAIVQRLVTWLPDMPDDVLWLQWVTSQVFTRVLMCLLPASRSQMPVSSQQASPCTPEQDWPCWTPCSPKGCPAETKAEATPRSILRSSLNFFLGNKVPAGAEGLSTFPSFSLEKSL
Protocol: Even though C-terminal tagging is reported not to interfere with PNPLA3 localization,[20] we established an assay to exclude the possibility that C-terminal tagging of PNPLA3 with tagRFP could alter PNPLA3 response to NUV-244 on lipid droplets. For this we generated Huh7 cell lines that express untagged variants of PNPLA3 I148M or PNPLA3 WT and visualized PNPLA3 on lipid droplets by immunofluorescence (Figures 3C, 3D, and S3A).
Cells were fixed with 4% paraformaldehyde for 15 minutes at room temperature. Cells were blocked with 0.2 M glycine, 0.1 mg/mL saponin, and 30 mg/mL bovine serum albumin (BSA) (all Sigma Aldrich) in PBS for 1 hour. Cells were washed 1x with washing buffer (0,1 mg/ml saponin + 1 mg/ml Bovine serum albumin) using a Blue Washer (Blue Cat Bio). Mouse anti-human ADPN (PNPLA3, C-8, #sc-390252, Santa Cruz) and rabbit anti-human PNPLA2 (Sigma Aldrich, #HPA055173-25UL) primary antibodies and appropriate secondary antibodies conjugated with Alexa-Fluor 647 (Jackson ImmunoResearch) were used. […]
Images were acquired by an Opera Phenix confocal spinning disc microscope system (Revvity, Waltham, MA, USA) with a 20x or 40x water objective at 405 nm (Hoechst), 488 nm (BODIPY) and 647 nm. Quantification was carried out with the Harmony (Revvity, Waltham, MA, USA) or MetaXpress software (Molecular Devices). […]

[1] = system: Huh7 cells expressing PNPLA3 I148M-tagRFP; assay: Lipid droplet dispersion / normalization of lipid droplet morphology in Huh7 PNPLA3 I148M-tagRFP cells; assay type: cell-based, human
Text: During the HTS we observed that PNPLA3 I148M-tagRFP expression altered the morphology of lipid droplets compared to the Huh7 parental control cells. PNPLA3 I148M-tagRFP expression leads to clustering of large lipid droplets around the nucleus and a reduction of small cytoplasmic lipid droplets, which is reflected by changes (lowering) in the number of lipid droplets scorable by the lipid droplet detection algorithm per cell (Figures 4A and 4B, Video S1). Indeed, a role for PNPLA3 I148M in the regulation of lipid droplet morphology is known.[12]^,[13]^,[15]^,[16]^,[21]^,[33] We speculated that reduction of PNPLA3 I148M-tagRFP on lipid droplets of Huh7 cells should therefore restore lipid droplet morphology back to the WT situation in the parental cell line. For this we analyzed all hits at the retest stage in the primary assay. […]
Images were analyzed using Harmony (Revvity) and MetaXpress software (Molecular Devices, USA) to quantify lipid droplet morphology and PNPLA3 I148M-tagRFP intensity.
Assay plates were evaluated based on Z’ scores (>0.6) and signal-to-background ratio (>12) using Genedata Screener® for HTS and Condoseo modules (Genedata, Switzerland). […] Automated image analysis routines were set up to quantify the number, morphology and intensity of nuclei, lipid droplets and the intensity of PNPLA3 I148M-tagRFP on lipid droplets. […]

Huh7 cells = assay: Total nuclear count in Huh7 cells; assay type: cell-based, human; details: effective concentrations
Protocol: Indeed, NUV-244 has no effect on total nuclear count at effective concentrations in Huh7 cells and we frequently observed mitotic cells in the Hoechst channel even after 24h incubation (data not shown). This indicates low toxicity of NUV-244 at effective concentrations. We validated this by recording the growth curves of different cell lines upon NUV-244 incubation and found no effects of 1μM or 5μM NUV-244 on the proliferative capacity of Hep3B cells, or Huh7 and LX-2 cells compared to DMSO treated cells (Figure 6A). PNPLA3 I148M expression has been reported to sensitize cells against lipotoxicity and to induce mitochondrial dysfunction.[32]^,[34]^,[35]^,[36]^,[37]
Assay plates were evaluated based on Z’ scores (>0.6) and signal-to-background ratio (>12) using Genedata Screener® for HTS and Condoseo modules (Genedata, Switzerland). Normalization, quality control, and fitting curves for EC50 determination of tested compounds were performed with Genedata Screener® for high-content screening and Genedata Condoseo modules (Genedata AG, Basel, Switzerland). More than 820K cpds were screened on 791 1536W plates in 11 runs covering three weeks of primary HTS. Automated image analysis routines were set up to quantify the number, morphology and intensity of nuclei, lipid droplets and the intensity of PNPLA3 I148M-tagRFP on lipid droplets. […]

SMILES: Cc1cccc(Cc2nc(C)c(C(=O)Nc3cc(O)ccc3Cl)s2)c1 [NUV-244]
- EC50 (PNPLA3): 341 nM
- appearance of small mobile lipid droplets (time-lapse) ([1]; 5μM for 24h, Huh7 expressing PNPLA3 I148M): partially restore
- EC50 ([1]; Homo sapiens, Huh-7, resynthesis, representative curve, Figure 4C, read-out: EC50 [M] Lipid droplet aggregates): 4.84e-07 M
- effect on total nuclear count (Huh7 cells): no effect
